From PMC9805685, “Isolation, bioassay and 3D-QSAR analysis of 8-isopentenyl flavonoids from Epimedium sagittatum maxim. as PDE5A inhibitors” (Chinese Medicine, 2022)
Where “and” joins values, the source holds several entries; their conditions need not be identical. Identical values can stand only once. Like-named read-outs stand apart in the source and are kept apart here.

Key:
cGMP level of CCSMCs = assay: cGMP assay in CCSMCs by ELISA; assay type: cell-based, rat; settings: 10 μM, 48 h
Description: (§1) Male Sprague–Dawley (SD) rats (180–220 g) were purchased from Shanghai SLAC Laboratory Animal Co., Ltd. This experiment protocol was approved by the standardizing laboratory animal ethical review of Shanghai University of Traditional Chinese Medicine. After removal of the corpus spongiosum, subcutaneous tissue and deep fascia of penises of SD rats, the corpus cavernosum tissue was cut into small pieces of less than 2mm^3 and digested with 0.5% collagenase I and 20% fetal bovine serum (PFES) in DMEM for 4 h. The cell suspensions were collected by mesh filtration and centrifugation, and cultured in DMEM containing 20% PFES and 1 × antibiotics at 37 °C in a humidified atmosphere with 5% CO2. After 24 h culture, spindle CCSMCs attached to the culture dish. The medium was replaced with DMEM containing 10% PFES when CCSMCs reached 70% confluence.
CCSMCs were seeded in 6-well plate at a density of 100,000/well for 24 h, and then were treated with 10 μM 1 ~ 3 for 48 h. The cells were lysed by 0.1 M hydrochloric acid with 200 μl per well for 20 min incubation, then the supernatant was collected and determined the cGMP content by ELISA.

[1] = tested on: cytoplasmic calcium in CCSMCs; assay: Fluorescent staining of calcium (Fluo-4AM) in CCSMCs; assay type: cell-based, rat; settings: for fluorescence intensity of cytoplasmic calcium in CCSMCs: 10 uM, 30 min, Fluo-4 AM
Description: as §1
CCSMCs were cultured in 6-well plate at a density of 100,000/well for 48 h. Then cells were stained by Fluo-4AM for 30 min prior to […] 1 ~ 3 exposure for 30 min in the presence or absence of 10 μM Rp-8-Br-cGMPS (the protein kinase G inhibitor). After PBS rinse, the cytosolic calcium was observed by fluorescence microscope.

PDE5A1 [2] = molecular target: T1, PDE5A1 (Homo sapiens, UniProt O76074); assay: PDE5A1 inhibition assay, enzyme reaction with HPLC detection of cGMP; assay type: biochemical; settings: 0.15 µg/mL PDE5A1, 7.5 µg/mL cGMP, 90 min at 35 ℃
Experimental: 50 μL analytes were injected and separated on the C18 5 μm column with a flow rate of 1 mL/min at 30 °C column temperature. The mobile phase consisted of methanol and 0.05 mol/L potassium dihydrogen phosphate (10:90, V/V).
All components for assay were diluted in assay buffer which contained 100 mM MgCl2 and 50 mM Tris–HCl (pH 8.0). The compounds were dissolved in DMSO and then further diluted to the desired concentration with assay buffer. 30 μL PDE5A1 solution and 30 μL compound solution were mixed at room temperature and incubated for 5 min, followed by addition of with 30 μL cGMP solution, and the reaction was carried out at 35 °C for 90 min. After the assay, each vial was incubated in 100 °C boiling water for 5 min to inactivate the PDE5A1 activity, and then was cooled to be detected with HPLC. No PDE5A1 was used as the positive control, and DMSO was used as the negative control. Percentage inhibition was calculated using the peak area of HPLC with the following formula.
For dose–response experiments, the PDE5A1 inhibitors were diluted to 7 concentrations series with fourfold gradient. Two individual operations were performed on different dates as the repetition.
For developing the screening method for PDE5A1 inhibitors, the in vitro enzyme reaction and HPLC detection were combined. […] The concentrations of enzyme and substrate are important parameters in the inhibitor screening assay.

PDE5A1 [3] = molecular target: T1, PDE5A1; assay: CoMFA 3D-QSAR model prediction of PDE5A1 activity; settings: EA minus PA
Experimental: (§2) All molecular modeling and calculations were performed by the Sybyl program package. The structures of all compounds were constructed using the Sketch Molecule module. Structural energy minimization was carried out using the standard Tripos molecular mechanics force field and Gasteiger-Huckle charge, with the convergence criterion set at 0.005 kcal/(Å·mol) and the max iterations for the minimization set to 10,000.
The 3D cubic lattice region was created automatically and the grid spacing was set at 1.7 Å in the x, y, and z directions. A sp^3 carbon atom with + 1 net charge was taken as the probe atom and steric and electrostatic interactions were calculated by using the Tripos force field. A cutoff of 30 kcal/mol was adopted in calculating energies. With standard options for scaling of variables, the regression analysis was carried out using partial least squares (PLS) method. The cross-validation with Leave-One-Out (LOO) option was carried out to obtain the optimum number of components (ONC).The final model (non-cross-validated conventional analysis) was developed with the optimum number of components. Region focusing is an advanced strategy that improves prediction ability of the initial built CoMFA model. CoMFA region focusing method refines a model by increasing the weights of the lattice points. StDev × coefficient values were used as weights.

PDE5A1 [4] = molecular target: T1, PDE5A1; assay: CoMSIA 3D-QSAR model prediction of PDE5A1 activity; settings: EA minus PA
Experimental: as §2
Although CoMSIA is similar to CoMFA, CoMSIA not only computes the steric and electrostatic fields, but also calculates additional hydrophobic, hydrogen-bond donor, and hydrogen-bond acceptor fields. CoMSIA descriptors were calculated with the same lattice box, grid spacing and probe atom as that used for the CoMFA calculations. In CoMSIA analysis, the five different descriptor fields are not totally independent from each other. Given that the size of dataset, we decided to use three of five fields as the descriptors.

PDE5A1 [5] = molecular target: T1, PDE5A1; settings: converted from literature IC50; cited from earlier work

Row | CoMFA residual (PDE5A1 [3]) | IC50 (PDE5A1 [2]; read-out: PDE5A1 (IC50 ± SD)) | CoMSIA residual (PDE5A1 [4]) | Compound | pIC50 (-logIC50), experimental activity (EA) (PDE5A1 [5]) | other results
1 | 0.034 | – | – | COc1ccc(-c2oc3c(CC=C(C)C)c(O[C@@H]4O[C@H](CO)[C@@H](O)[C@H](O)[C@H]4O)cc(O)c3c(=O)c2O[C@@H]2O[C@@H](C)[C@H](O)[C@@H](O)[C@H]2O)cc1 [Compound 1, icariin] | – | cGMP level of CCSMCs (cGMP level of CCSMCs): increase cGMP level; fluorescence intensity of cytoplasmic calcium in CCSMCs [1]: decrease cytoplasmic Ca^2+; IC50 (PDE5A1 [2]; PDE5A1 (IC50 ± SD)): 8.28 µM and 8.27 µM
2 | 0.015 | 3.23 µM | – | COc1ccc(-c2oc3c(CC=C(C)C)c(O)cc(O)c3c(=O)c2OC2OC(C)C(O)C(O)C2OC2OC(C)C(O)C(O)C2O)cc1 (centres unmarked) [Compound 2, 2-O"-rhamnosylicaridide II] | – | cGMP level of CCSMCs (cGMP level of CCSMCs): increase cGMP level; fluorescence intensity of cytoplasmic calcium in CCSMCs [1]: decrease cytoplasmic Ca^2+
3 | – | 5.47 µM and 5.48 µM | 0.013 | COc1ccc(-c2oc3c(CC=C(C)C)c(O)cc(O)c3c(=O)c2O[C@@H]2O[C@@H](C)[C@H](O)[C@@H](O)[C@H]2O)cc1 [Compound 3, baohuoside I] | – | cGMP level of CCSMCs (cGMP level of CCSMCs): increase cGMP level; fluorescence intensity of cytoplasmic calcium in CCSMCs [1]: decrease cytoplasmic Ca^2+
4 | – | 409 ± 31.4 µM | – | COc1ccc(-c2oc3c(CC=C(C)C)c(OC4OC(CO)C(O)C(O)C4O)cc(O)c3c(=O)c2OC2OC(C)C(O)C(O)C2OC2OC(CO)C(O)C(O)C2O)cc1 (centres unmarked) [Compound 4, epimedin A] | – | –
5 | 0.032 | 358 ± 34.2 µM | – | COc1ccc(-c2oc3c(CC=C(C)C)c(OC4OC(CO)C(O)C(O)C4O)cc(O)c3c(=O)c2OC2OC(C)C(O)C(O)C2OC2OCC(O)C(O)C2O)cc1 (centres unmarked) [Compound 5, epimedin B] | – | –
6 | – | 682 µM | 0.037 | COc1ccc(-c2oc3c(CC=C(C)C)c(OC4OC(CO)C(O)C(O)C4O)cc(O)c3c(=O)c2OC2OC(C)C(O)C(O)C2OC2OC(C)C(O)C(O)C2O)cc1 (centres unmarked) [Compound 6, epimedin C] | – | –
7 | 0.105 | – | 0.058 | COc1ccc(-c2oc3c(CC=C(C)C)c(O)cc(O)c3c(=O)c2O)cc1 [Compound 7] | – | –
8 | – | – | 0.000 | COc1ccc(-c2oc3c(CC=C(C)C)c(OCCO)cc(O)c3c(=O)c2OC2OC(C)C(O)C(O)C2O)cc1 (centres unmarked) [Compound 8] | 6.444 | –
9 | 0.296 | – | 0.562 | COc1ccc(C(=O)/C=C\c2cc(OC)c(OC)cc2OC)c(OC)c1 [Compound 10] | 5.745 | –
10 | – | – | – | COc1ccc(/C=C/C(=O)c2c(OCc3ccccc3)cc(OC)c(OC)c2OC)cc1OC [Compound 12] | 5.229 | –
11 | – | – | – | COc1ccc(OC)c(C(=O)/C=C/c2ccc(OC)c(OC)c2)c1 [Compound 13] | 5.155 | –
12 | 0.06 | – | 0.025 | COc1cccc(/C=C/C(=O)c2c3c(c(OC)c4c2OCO4)CN(C)CC3)c1 [Compound 14] | 5.208 | –
13 | – | – | 0.001 | CCCOc1ccccc1-c1nc2n[nH]nc2c(=O)[nH]1 [Compound 17] | – | –
14 | – | – | – | Nc1nc2c(nc(Br)n2[C@@H]2O[C@@H]3COP(O)(=S)O[C@H]3[C@H]2O)c(=O)[nH]1 (some centres unmarked) [Rp-8-Br-cGMPS, reference compound] | – | effect on calcium down-regulation by 1 ~ 3 in CCSMCs ([1]; 10 μM Rp-8-Br-cGMPS together with 1 ~ 3, 30 min): blocked the down-regulated calcium levels

Row | Compound | CoMFA residual (PDE5A1 [3]) | IC50 (PDE5A1 [2]; read-out: PDE5A1 (IC50 ± SD)) | CoMSIA residual (PDE5A1 [4]) | pIC50 (-logIC50), experimental activity (EA) (PDE5A1 [5]) | other results
15 | CCCc1nn(C)c2c(=O)[nH]c(-c3cc(S(=O)(=O)N4CCN(C)CC4)ccc3OCC)nc12 [Sildenafil, sildenafil] | 0.068 | – | – | – | –
